Results as given in US10239859B2, “Nitrogen-containing heterocycles as pesticides” (Bayer CropScience Aktiengesellschaft, priority 2015, dated 2019).
Read-outs that look alike come from different tables or passages of the source.

Key:
Tetranychus urticae = Tetranychus urticae spray test, OP-resistant; assay type: in vivo; conditions: 500 g/ha, bean leaf discs, after 6 days
Protocol: Tetranychus urticae—Spray Test, OP-Resistant
(§1) Solvent: 78.0 parts by weight of acetone • • 1.5 parts by weight of dimethylformamide
(§2) Emulsifier: alkylaryl polyglycol ether
(§3) To produce a suitable active compound preparation, 1 part by weight of active compound is dissolved with the stated parts by weight of solvent and made up with water containing an emulsifier concentration of 1000 ppm until the desired concentration is attained. To produce further test concentrations, the preparation is diluted with emulsifier-containing water.
Discs of bean leaves (Phaseolus vulgaris) infested with all stages of the greenhouse red spider mite (Tetranychus urticae) are sprayed with an active compound preparation of the desired concentration.
After 6 days, the efficacy in % is determined. 100% means that all the spider mites have been killed; 0% means that no spider mites have been killed.

Phaedon cochleariae = Phaedon cochleariae spray test; assay type: in vivo; conditions: 500 g/ha, larvae on Chinese cabbage leaf discs, after 7 days
Protocol: Phaedon cochleariae—Spray Test
as §1, §2, §3
After 7 days, the efficacy in % is determined. 100% means that all the beetle larvae have been killed; 0% means that no beetle larvae have been killed.

Lucilia cuprina = Lucilia cuprina test; assay type: in vivo; conditions: 100 ppm, L1 larvae, after 2 days
Protocol: (§4) Solvent: dimethyl sulphoxide
To produce a suitable active compound preparation, 10 mg of active compound are mixed with 0.5 ml of dimethyl sulphoxide, and the concentrate is diluted with water to the desired concentration.
About 20 L1 larvae of the Australian sheep blowfly (Lucilia cuprina) are transferred into a test vessel containing minced horsemeat and the active compound preparation of the desired concentration.
After 2 days, the kill in % is determined. 100% means that all the larvae have been killed; 0% means that no larvae have been killed.

Ctenocephalides felis = Ctenocephalides felis oral test; assay type: in vivo; conditions: 100 ppm in citrated cattle blood, adult cat fleas, after 2 days
Protocol: Ctenocephalides felis—Oral Test
as §4
To produce a suitable active compound preparation, 10 mg of active compound are mixed with 0.5 ml of dimethyl sulphoxide. Dilution with citrated cattle blood gives the desired concentration.
About 20 unfed adult cat fleas (Ctenocephalides felis) are placed into a chamber which is closed at the top and bottom with gauze. A metal cylinder whose bottom end is closed with parafilm is placed onto the chamber. The cylinder contains the blood/active compound preparation, which can be imbibed by the fleas through the parafilm membrane.
After 2 days, the kill in % is determined. 100% means that all of the fleas have been killed; 0% means that none of the fleas have been killed.

Myzus persicae = Myzus persicae spray test (Chinese cabbage leaf discs); assay type: in vivo; conditions: after 6 days
Protocol: Myzus persicae—Spray Test
Solvent: 78 parts by weight of acetone • • 1.5 parts by weight of dimethylformamide
as §2, §3
Discs of Chinese cabbage leaves (Brassica pekinensis) infested by all stages of the green peach aphid (Myzus persicae) are sprayed with an active compound preparation of the desired concentration.
After 6 days, the efficacy in % is determined. 100% means that all the aphids have been killed; 0% means that no aphids have been killed.

[1] = log P determination by HPLC on reversed-phase C18 columns (OECD Guideline 117); assay type: physicochemical
Protocol: The log P values were determined in accordance with OECD Guideline 117 (EC Directive 92/69/EEC) by HPLC (high-performance liquid chromatography) using reversed-phase (RP) columns (C18), by the following methods:
[a] The LC-MS determination in the acidic range is effected at pH 2.7 with 0.1% aqueous formic acid and acetonitrile (contains 0.1% formic acid) as eluents; linear gradient from 10% acetonitrile to 95% acetonitrile.
[b] LC-MS determination in the neutral range is effected at pH 7.8 with 0.001 molar aqueous ammonium hydrogencarbonate solution and acetonitrile as eluents; linear gradient from 10% acetonitrile to 95% acetonitrile.

[2] = reversed-phase C18 HPLC column, acidic range, pH 2.7, 0.1% aqueous formic acid / acetonitrile, read-out: logP value (HCOOH)
[3] = reversed-phase C18 HPLC column, neutral range, pH 7.8, 0.001 molar aqueous ammonium hydrogencarbonate / acetonitrile, read-out: LogP value (neutral)

## N#C/N=c1\ccccn1-c1ccc(C(F)(F)F)nc1 [Example 1, [1-[6-Trifluoromethylpyridin-3-yl]-2(1H)-pyridinylidene]cyanamide]
Tetranychus urticae
  efficacy: 100%
Phaedon cochleariae
  efficacy: 100%
Lucilia cuprina
  efficacy (kill): 100%
Ctenocephalides felis
  efficacy (kill): 95%
Myzus persicae; 500 g/ha
  efficacy: 100%

## N#C/N=c1\ccccn1-c1ccc(Br)nc1 [Example 2, [1-[6-Bromopyridin-3-yl]-2(1H)-pyridinylidene]cyanamide]
Myzus persicae; 100 g/ha
  efficacy: 90%
[1]; [2]
  chromatographic logP: 1.07

## Cc1ccc(-n2cccc/c2=N\C#N)cn1 [Example 3, [1-[6-Methylpyridin-3-yl]-2(1H)-pyridinylidene]cyanamide]
Phaedon cochleariae
  efficacy: 100%
Myzus persicae; 100 g/ha
  efficacy: 90%
[1]; [2]
  chromatographic logP: 0.46

## O=C(/C=C1\C=CC=CN1c1ccc(C(F)(F)F)nc1)C(F)(F)F [Example 4, (3E)-3-[1-(6-Trifluoromethyl-3-pyridinyl)-2(1H)-pyridinylidene]-1,1,1-trifluoro-2-propanone]
Lucilia cuprina
  efficacy (kill): 100%
Myzus persicae; 500 g/ha
  efficacy: 90%
[1]; [2]
  chromatographic logP: 2.2

## O=C(/N=c1\ccccn1-c1ccc(C(F)(F)F)nc1)C(F)(F)F [Example 7]
Lucilia cuprina
  efficacy (kill): 95%
Myzus persicae; 500 g/ha
  efficacy: 100%
[1]; [2]
  chromatographic logP: 2.19

## N#C/N=c1\ccccn1-c1ccc(F)nc1 [Example 8, [1-[6-Fluoropyridin-3-yl]-2(1H)-pyridinylidene]cyanamide]
Phaedon cochleariae
  efficacy: 100%
Myzus persicae; 500 g/ha
  efficacy: 90%
[1]; [2]
  chromatographic logP: 0.7

## N#C/N=c1\ccccn1-c1ccc(-n2cnc(Cl)n2)nc1 [Example 24, [1-[6-(3-Chloro-1,2,4-triazol-1-yl)pyridin-3-yl]-2-(1H)-pyridinylidene]cyanamide]
[1]; [3]
  chromatographic logP: 1.39

## O=c1ccccn1-c1ccc(C(F)(F)F)nc1 [IV-1, 6′-Trifluoromethyl-[1(2H),3′-bipyridin]-2-one]
[1]; [2]
  chromatographic logP: 1.26

## O=c1ccccn1-c1ccc(Br)nc1 [IV-2, 6′-Bromo-[1(2H), 3′-bipyridin]-2-one]
[1]; [2]
  chromatographic logP: 0.95

## N#Cc1cccn(-c2ccc(Cl)nc2)c1=O [IV-4, 1,2-Dihydro-2-oxo-1-(6-chloropyridin-3-yl)-3-pyridinecarbonitrile]
[1]; [2]
  chromatographic logP: 1

## O=c1ccccn1-c1ccc(Cl)nc1 [IV-14, 6′-chloro-[1(2H),3′-bipyridin]-2-one]
[1]; [2]
  chromatographic logP: 0.67

## O=c1ccccn1-c1ccc(-n2cnc(Cl)n2)nc1 [IV-29, 6′-(3-Chloro-1,2,4-triazol-1-yl)-[1(2H), 3′-bipyridin]-2-one]
[1]; [2]
  chromatographic logP: 1.23

## O=c1ccccn1-c1ccc(C(F)(F)C(F)(F)C(F)(F)F)nc1 [IV-31, 6′-Heptafluoropropyl-[1(2H),3′-bipyridin]-2-one]
[1]; acidic range, pH 2.7, 0.1% aqueous formic acid / acetonitrile, read-out: logP value (HCOOH)
  chromatographic logP: 2.26

## O=c1ccccn1-c1ccc(C(F)(C(F)(F)F)C(F)(F)F)nc1 [IV-32, 6′-(1,1,1,2,3,3,3-Heptafluoropropyl)-[1(2H), 3′-bipyridin]-2-one]
[1]; [2]
  chromatographic logP: 2.4

## O=c1ccccn1-c1ccc(C(F)(F)C(F)(F)F)nc1 [IV-33, 6′-Pentafluoroethyl-[1(2H), 3′-bipyridin]-2-one]
[1]; [2]
  chromatographic logP: 1.94

## Cc1ccc(-n2ccccc2=S)cn1 [VI-1, 6′-Methyl-[1(2H),3′-bipyridine]-2-thione]
[1]; [2]
  chromatographic logP: 0.51

## FC(F)(F)c1ccc(-n2ccccc2=S)cn1 [VI-2, 6′-trifluoromethyl-[1(2H),3′-bipyridine]-2-thione]
[1]; [2]
  chromatographic logP: 1.7

## S=c1ccccn1-c1ccc(-n2cnc(Cl)n2)nc1 [VI-5, 6′-(3-Chloro-1,2,4-triazol-1-yl)-[1(2H), 3′-bipyridine]-2-thione]
[1]; [3]
  chromatographic logP: 1.58

## [1-[[6-(3-Trifluoromethylpyrazol-1-yl)pyridin-3-yl]-2-(1H)-pyridinylidene]cyanamide [Example 25]
[1]; pH 7.8
  LogP value (neutral): 2.23
